From US12313635B2, “Biomarker for thoracic aortic aneurysm” (THE REGENTS OF THE UNIVERSITY OF CALIFORNIA, priority 2018, dated 2025)

Experiments:
[1] = system: Ang II infused hph-1 mice and Ang II-infused apoE null mice; details: cited from earlier work
DHFR [2] = assay: Western blotting of DHFR and eNOS expression in aortic endothelial cells; format: in vivo, mice; details: aortic ECs of Fbn1^+/+ and Fbn1^C1039G/+ animals after FA treatment
Procedure: (§1) FA treatment started at 4 weeks of age, and lasted through the entire study period of 8 weeks till harvest.
Western blotting was performed following standard protocols, using 12.5% SDS/PAGE gel and nitrocellulose membranes. Primary antibodies and their dilutions used were: DHFR (1:500, Novus Biologicals, H00001719-MO1), β-actin (1:3000, Sigma-Aldrich, A2066), eNOS (1:2000, BD Transduction Laboratories, 610297), TGFβ (1:500, Abcam, ab92486), NOX4 (1:300, Novus Biologicals, NB110-58849SS), and GTPCH 1 (1:500, Abbiotec, 250680).
Endothelial cells (ECs) were isolated from freshly prepared aortas, Western blot was used to detect DHFR expression in aortic ECs and HPLC was performed to assess DHFR activity in the isolated ECs and the denuded aortas of the Fbn1^+/+ and Fbn1^C1039G/+ animals. […] As shown in FIGS. 6D & 6E, DHFR activity was measured via HPLC from both the isolated ECs (FIG. 6D) and the denuded aortas (FIG. 6E).

[3] = system: NO bioavailability in aortic tissues; assay: Aortic NO bioavailability by electron spin resonance; format: in vivo; details: aortas of Fbn1^C1039G/+ mice, age 8 and 12 weeks, oral FA
Procedure: FA treatment started at 4 weeks of age, and lasted through the entire study period of 8 weeks till harvest. Aortic N O production was also measured using ESR as previous described^19-22, 26-29, 32-34. Briefly, freshly isolated aortas were cut into 2 mm rings, and then incubated in freshly prepared NO specific spin trap Fe^2+(DETC)2 (0.5 mmol/L) in nitrogen bubbled, modified Krebs/HEPES buffer (as described above) at 37° C. for 60 min, in the presence of calcium ionophore A23187 (10 μmol/L). The aortic rings were then snap frozen in liquid nitrogen and loaded into a finger Dewarfor measurement with ESR. The instrument settings were as the following: Center field, 3440; Sweep width, 100 G: microwave frequency, 9.796 GHz; microwave power 13.26 mW; modulation amplitude, 9.82 G; 512 points of resolution; and receiver gain 356.

H4B = assay: Aortic and plasma tetrahydrobiopterin (H4B) levels by HPLC; format: in vivo; details: Fbn1^+/+ and Fbn1^C1039G/+ mice, oral FA vs chow diet
Procedure: as §1
Aortic H4B and plasma H4B were measured using HPLC as previously described^19-22, 26, 27, 32, 33, 35-37. For the aorta, freshly isolated aortas were lysed in H4B lysis buffer (0.1 M phosphoric acid, 1 mM EDTA, 10 mM dl-dithiothreitol) and then centrifuged at 12,000 g for 3 min at 4° C. in the dark. For plasma, equal volumes of plasma and H4B lysis buffer were mixed and incubated on ice for 20 min in the dark and then centrifuged at 12,000 g for 3 min at 4° C. in the dark. The supernatant for both the aorta and plasma was subjected to oxidation in acidic (0.2 M trichloroacetic acid with 2.5% 12 and 10% KI) and alkalytic solutions (0.1 M NaOH with 0.9% 12 and 1.5% KI). After centrifugation, 10 μl of the supernatant was injected into a HPLC system equipped with a fluorescent detector (SHIMADZU AMERICA INC, Carlsbad, CA, USA). Excitation and emission wavelengths of 350 nm and 450 nm were used to detect H4B and its oxidized species. H4B concentration was calculated as previously described ^38, 39.

DHFR [4] = assay: DHFR activity by HPLC in isolated ECs and denuded aortas; format: in vivo; details: Fbn1^C1039G/+ and Fbn1^+/+ mice, oral FA treatment
Procedure: as §1
DHFR activity was measured from isolated EC or denuded aorticring lysates as previously described^19, 22, 26. Briefly, lysates were incubated in a DHFR assay buffer (0.1 mol/L potassium phosphate dibasic, 1 mmol/L DTT, 0.5 mmol/L KCl, 1 mmol/L EDTA, and 20 mmol/L sodium ascorbate at pH 7.4) with NADPH (200 μmol/L) and the substrate dihydrofolate (50 μmol/L) at 37° C. for 20 min in the dark. The product of the reaction, tetrahydrofolate (THF), was measured using a HPLC system (SHIMADZU AMERICA INC, Carlsbad, CA, USA) with a C-18 column (Alltech, Deerfield, MA, USA) using water based mobile phase consisting of 7% acetonitrile and 5 mmol/L of potassium phosphate dibasic at pH 2.3. The signal was detected using a fluorescent detector at 295 nm excitation and 365 nm emission. The THF content was calculated against a standard curve prepared using THF solutions in assay buffer. Data are presented as nmol production of THF per min per mg protein.

[5] = system: Fbn1^C1039G/+ Marfan Syndrome (MFS) mice; assay: Ultrasound imaging (echocardiography) of aortic root and abdominal aorta diameters; format: in vivo; details: FA food (15 mg/kg/day from 4 weeks of age) vs chow diet
Text: All experimental procedures were approved by the Institutional Animal Care and Usage committee at the University of California, Los Angeles (UCLA). Original heterozygous Fbn1^C1039G/+ male animals were purchased from Jackson Labs (Bar Harbor, ME, Strain B6.129-Fbn1^tm1Hcd/J, stock #012885). Heterozygous mice develop proximal aortic aneurysms, mitral valve thickenings, pulmonary alveolar septation defects, mild thoracic kyphosis, and skeletal myopathy, but 90% reportedly live to one year of age. This strain was backcrossed to C57BL/6 for more than nine generations by the donating laboratory^14. All pups were genotyped using PCR (FIG. 2) as per instructions by Jackson Labs.
as §1
Animals were anesthetized with isoflurane (˜[…]), and secured onto a temperature controlled table to maintain temperature at 37° C. Hair from the abdomen and the chest were removed with a hair removal cream (Nair). […] All images were recorded and saved for later offline aortic dimension analysis.
(§2) Four weeks old heterozygous Fbn1^C1039G/+ male animals were treated with TGFβ neutralizing antibody (anti-TGFβ, clone 1D11, Bio X Cell) or isotype (IgG, clone MOPC21, Bio X Cell) as previously shown^40. […] Aortic superoxide production and eNOS uncoupling activity were determined after 4 weeks injection as described above.

eNOS = assay: Aortic superoxide production and eNOS uncoupling activity (L-NAME-sensitive superoxide) by electron spin resonance; format: in vivo, mice
Procedure: as §1
Aortic superoxide was measured by ESR as previously described^19-22, 26-33. Briefly, freshly isolated aortas were homogenized on icein lysis buffer containing 1:100 protease inhibitor cocktail, and centrifuged at 12,000 g for 15 min. Protein content of the supernatant was determined using a protein assay kit (Bio-Rad, #500-0113, #500-0114, #500-0115). […]
as §2
Firstly, ESR was used to measure the aortic superoxide production with or without L-NAME, an inhibitor for NOS. If eNOS is functional and coupled, its inhibition by L-NAME will increase the measured superoxide due to lack of scavenging effects of NO on superoxide. However, if eNOS is dysfunctional and uncoupled, it produces superoxide and the inhibition with L-NAME will reduce measured superoxide.

Structure (SMILES): Nc1nc2ncc(CNc3ccc(C(=O)N[C@@H](CCC(=O)O)C(=O)O)cc3)nc2c(=O)[nH]1 [FA, folic acid]
- AAA formation ([1]; Ang II infused hph-1 mice and Ang II-infused apoE null mice, oral administration): completely or largely attenuated
- plasma and tissue H4B levels ([1]; angiotensin II infused hph-1 and apoE null mice (AAA models)): restored
- expression of DHFR (DHFR [2]): increased
- NO bioavailability [3]: markedly improved
- H4B levels in plasma (H4B): substantially restored
- H4B levels in the aortas (H4B): substantially restored
- DHFR activity in the denuded aortas (DHFR [4]): substantially increased
- DHFR activity in the isolated ECs (DHFR [4]): substantially increased
- size (diameter) of abdominal aortas [5]: substantially smaller
- size (diameter) of aortic roots [5]: substantially smaller
- L-NAME-sensitive superoxide production (eNOS uncoupling activity) (eNOS; aortas of Fbn1^C1039G/+ mice at 8 and 12 week old, oral FA): completely attenuated
- superoxide production (eNOS; aortas of Fbn1^C1039G/+ mice, FA diet): reduce superoxide production
